Laboratory results from patent US20260345641A1, “COMPOSITIONS AND USES THEREOF” (Algorae Pharmaceuticals Ltd, priority 2023, published 2026).

Tested on: SH-S5Y5 neuroblastoma cells
Experiment: Cell viability (MTT) in response to Aβ, in vitro model of Alzheimer's disease
Assay type: cell-based
Conditions: 20 μM Aβ, 24 h
Description: The SH-S5Y5 neuroblastoma cell line was used for pre-clinical analysis. The SH-S5Y5 cell line is commonly used as a model for neurodegenerative disorders as the cells can be converted to various types of functional neurons by the addition of specific compounds (see, e.g., Xicoy et al., 2017, Molecular Neurodegeneration, 12: 10). In addition, the SH-S5Y5 cell line has been used widely in experimental neurological studies, including analysis of neuronal differentiation, metabolism, and function related to neurodegenerative processes, neurotoxicity and neuroprotection (see, e.g., Datki et al., 2003, Brain Research Bulletin, 62(3): 22-229; and Xie et al., 2010, Chinese Medical Journal, 123(8): 1086-1092).
100 μL MTT reagent was added to each well (final concentration 0.5 mg/mL). Cells were then incubated at 37 °C, 5% CO2 for 4 hours. Solubilization buffer (100 μL) was then added to each well and further incubated at 37 °C, 5% CO2 for 24 hours. Absorbance was then measured by spectrophotometer at 550-600 nm and background corrected at 650 nm.
Amyloid-β (Aβ; 1 mg) was dissolved in 2 mL of 1,1,1,3,3,3-hexafluoro-2-propanol (HFIP). An additional 200 μL of HFIP was then added due to volatility. The Aβ was sealed with parafilm and vortexed for 30 seconds before aliquoting at 100 μL per 1.5 mL tube. HFIP was then evaporated in fume hood for 8 hours. Tubes were then sealed with lid and parafilm and stored at −80 °C. Prior to use, Aβ was reconstituted in DMSO to a final volume of 10% v/v for 10-15 min at RT and vortexed every 3-5 min. F-12 medium was then added to a final volume of 90% v/v. Aβ was then stored at 4 °C for 24 hours and vortexed before use.
Cells were seeded in 96-well microplates and incubated 37 °C, 5% CO2 for 24 hours.

For `COc1cc2c(cc1OC)C(=O)C(CC1CCN(Cc3ccccc3)CC1)C2` (centres unmarked) [Donepezil], the “Cell viability as measured by MTT” value (Donepezil 2.5 μM) was −0.036, the “Cell viability as measured by MTT” value (Donepezil 5 μM) was −0.021 and the “Cell viability as measured by MTT” value (Donepezil 10 μM) was 0.021. For the same compound, the “Cell viability as measured by MTT” value (Donepezil 20 μM) was −0.011 and the “Cell viability as measured by MTT” value (Donepezil 30 μM) was −0.013.
